Our source for the IC50 values is patent US8946446B2, “Pyrrolo sulfonamide compounds for modulation of orphan nuclear receptor RAR-related orphan receptor-γ (ROR-γ, NR1F3) activity and for the treatment of chronic inflammatory and autoimmune diseases” (Phenex Pharmaceuticals AG, priority 2011, dated 2015).

The structures appear in SMILES notation. Some results are limits rather than exact numbers.

The target of one assay is T1, RORγ ligand binding domain (LBD) (Homo sapiens, UniProt P51449).
T1 construct: made in house; host or cells: E. coli BL-21 (BL3), vector pDEST15
T1 sequence (P51449 269-508 limits assumed): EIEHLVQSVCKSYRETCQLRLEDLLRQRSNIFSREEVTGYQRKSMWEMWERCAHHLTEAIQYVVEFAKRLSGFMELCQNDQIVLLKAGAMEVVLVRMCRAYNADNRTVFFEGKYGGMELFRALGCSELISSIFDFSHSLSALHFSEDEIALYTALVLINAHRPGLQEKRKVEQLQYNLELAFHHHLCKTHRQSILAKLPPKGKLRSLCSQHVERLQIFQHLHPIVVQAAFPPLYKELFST
The experiment in a line: TR-FRET Activity Assay (ligand sensing, RORγ-LBD / coactivator peptide interaction). The assay is classed as biochemical.
Details: not given
An excerpt:
This method measures the ability of putative ligands to modulate the interaction between the purified bacterial expressed RORγ ligand binding domain (LBD) and synthetic N-terminally biotinylated peptides which are derived from nuclear receptor coactivator proteins such as but not limited to SRC1 (NcoA1), SRC2 (NcoA2, TIF2), SRC3 (NcoA3), PGC1α, PGC1β, CBP, GRIP1, TRAP220, RIP140.
The ligand-binding domain (LBD) of RORγ was expressed as fusion protein with GST in […] cells using the vector pDEST15. Cells were lysed by lysozyme-treatment and sonication, and the fusion proteins purified over glutathione sepharose (Pharmacia) according to the manufacturers instructions. For screening of compounds for their influence on the RORγ-peptide interaction, the LANCE technology (Perkin Elmer) was applied. This method relies on the binding dependent energy transfer from a donor to an acceptor fluorophor attached to the binding partner of interest. For ease of handling and reduction of background from compound fluorescence LANCE technology makes use of generic fluorophore labels and time resolved detection assays were done in a final volume of 25 μL in a 384 well plate, in a Tris-based buffer system (20 mM Tris-HCl pH6.8; 60 mM KCl, 1 mM DTT; 5 mM MgCl2; 35 ng/μL BSA), containing 20-60 ng/well recombinantly expressed RORγ-LBD fused to GST, 200-600 nM N-terminally biotinylated peptide, 200 ng/well Streptavidin-xIAPC conjugate (Prozyme) and 6-10 ng/well Eu W1024-antiGST (Perkin Elmer). DMSO content of the samples was kept at 1%.
After generation of the Tris-based buffer system, the potentially RORγ modulating ligands were diluted. […] The LANCE signal was detected by a Perkin Elmer EnVision™ Multilabel Counter. The results were visualized by plotting the ratio between the emitted light at 665 nm and 615 nm. […] Ligands that promote the complex formation induce a concentration-dependent increase in time-resolved fluorescent signal.
The normalised TR-FRET assay values, using the following equation: 1000*665 nm measurement value/615 nm measurement value, were transferred to the program GraphPad Prism to generate graphs and dose response curves using the following equation:
Equation: Sigmoidal Dose-Response (Variable Slope) Y=Bottom+(Top-Bottom)/(1+10^((LogEC50−X)*HillSlope)) X is the logarithm of the concentration. Y is the response. Y starts at Bottom and goes to Top with a sigmoidal shape.
This is identical to the “four parameter logistic equation”. The IC50 values are calculated using this equation.
For orientation: Time-resolved FRET reads energy transfer from a long-lived donor to a nearby acceptor.
`CC(=NO)c1cc(-c2cc(S(N)(=O)=O)c(C)n2CC2CCCCC2)cc(C(C)(C)C)c1` [Example 6, 5-(3-(tert-Butyl)-5-(1-(hydroxyimino)ethyl)phenyl)-1-(cyclohexylmethyl)-2-methyl-1H-pyrrole-3-sulfonamide] had an IC50 of 500 to 2000 nM.

The assay is the same for the next values; noted with them: read-out: RORγ activity in the TR-FRET Activity Assay (IC50 FRET), Group.
With `Cc1c(S(N)(=O)=O)cc(-c2cc3c(c(C(C)(C)C)c2)OCCC3=NO)n1CC1CCCCC1` [Example 6/1, 5-(8-(tert-Butyl)-4-(hydroxyimino)chroman-6-yl)-1-(cyclohexylmethyl)-2-methyl-1H-pyrrole-3-sulfonamide], the half-maximal inhibitory concentration (IC50) is over 2000 nM.

On to `Cc1c(S(N)(=O)=O)cc(-c2cc(C(C)(C)C)cc(C(C)(F)F)c2)n1CC1CCCCC1` [Example 7, 5-(3-(tert-Butyl)-5-(1,1-difluoroethyl)phenyl)-1-(cyclohexylmethyl)-2-methyl-1H-pyrrole-3-sulfonamide], for which the 50% inhibitory concentration (IC50) was under 500 nM. Same read-out and setting: then `Cc1c(S(N)(=O)=O)cc(-c2cc(C(C)(C)C)c(C(=O)O)c(C(C)(C)C)c2)n1CC1CCCCC1` [Example 8, 2,6-Di-tert-butyl-4-(1-(cyclohexylmethyl)-5-methyl-4-sulfamoyl-1H-pyrrol-2-yl)benzoic acid], with over 2000 nM. As to `Cc1c(S(N)(=O)=O)cc(-c2cc(C(C)(C)C)c(C#N)c(C(C)(C)C)c2)n1CC1CCCCC1` [Example 9, 1-(Cyclohexylmethyl)-5-(3,5-di-tert-butyl-4-cyanophenyl)-2-methyl-1H-pyrrole-3-sulfonamide], the IC50 was under 500 nM. On the same count and under the same terms, the figure for `Cc1c(S(=O)(=O)NCC(C)(C)C(=O)O)cc(-c2ccc(S(=O)(=O)NC(C)(C)C)c(C(C)(C)C)c2)n1CC1CCCCC1` [Example 11, 3-(5-(3-(tert-Butyl)-4-(N-(tert-butyl)sulfamoyl)phenyl)-1-(cyclohexylmethyl)-2-methyl-1H-pyrrole-3-sulfonamido)-2,2-dimethylpropanoic acid] is over 2000 nM. Consider `Cc1c(S(N)(=O)=O)cc(-c2cc(C(=O)NCC(C)C)cc(C(C)(C)C)c2)n1CC1CCCCC1` [Example 13, 3-(tert-Butyl)-5-(1-(cyclohexylmethyl)-5-methyl-4-sulfamoyl-1H-pyrrol-2-yl)-N-isobutylbenzamide], for which the IC50 is 500 to 2000 nM. Regarding `Cc1c(S(N)(=O)=O)cc(-c2cc(O)cc(C(C)(C)C)c2)n1CC1CCCCC1` [Example 14, 5-(3-(tert-Butyl)-5-hydroxyphenyl)-1-(cyclohexylmethyl)-2-methyl-1H-pyrrole-3-sulfonamide], the 50% inhibitory concentration (IC50) is over 2000 nM. Still for that read-out and setting: the figure for `Cc1c(S(N)(=O)=O)cc(-c2cc(OCCCC(=O)O)cc(C(C)(C)C)c2)n1CC1CCCCC1` [Example 16, 4-(3-(tert-Butyl)-5-(1-(cyclohexylmethyl)-5-methyl-4-sulfamoyl-1H-pyrrol-2-yl)phenoxy)butanoic acid] is over 2000 nM.

For the compound `Cc1c(S(N)(=O)=O)cc(-c2cc(OCC(C)C)nc(C(C)(C)C)c2)n1CC1CCCCC1` [Example 17, 5-(2-tert-Butyl-6-isobutoxypyridin-4-yl)-1-(cyclohexylmethyl)-2-methyl-1H-pyrrole-3-sulfonamide], the IC50 is under 500 nM. Turning to `Cc1c(S(N)(=O)=O)cc(-c2cc(C(C)(C)C)nc(C(C)(C)C)c2)n1CC1CCCCC1` [Example 18, 1-(Cyclohexylmethyl)-5-(2,6-di-tert-butylpyridin-4-yl)-2-methyl-1H-pyrrole-3-sulfonamide], the concentration for half-maximal inhibition (IC50) was under 500 nM. Still for that read-out and setting: then `Cc1c(S(N)(=O)=O)cc(-c2cc(C(=O)NC(C)(C)C)nc(C(C)(C)C)c2)n1CC1CCCCC1` [Example 20, N,6-Di-tert-butyl-4-(1-(cyclohexylmethyl)-5-methyl-4-sulfamoyl-1H-pyrrol-2-yl)picolinamide], with 500 to 2000 nM.

Regarding `Cn1c(S(N)(=O)=O)cc(-c2cc(C(C)(C)C)cc(C(C)(C)C)c2)c1CC1CCCCC1` [Example 25, 5-(Cyclohexylmethyl)-4-(3,5-di-tert-butylphenyl)-1-methyl-1H-pyrrole-2-sulfonamide], the concentration for half-maximal inhibition (IC50) was over 2000 nM. The same measure, in the same setting: then `CC(C)(C)c1cc(-c2cc(S(N)(=O)=O)cn2CC2CCCCC2)cc(C(C)(C)C)c1` [Example 28, 1-(Cyclohexylmethyl)-5-(3,5-di-tert-butylphenyl)-1H-pyrrole-3-sulfonamide], with under 500 nM.

Regarding `CC(C)(C)c1cc(-c2cc(S(N)(=O)=O)c(Cl)n2CC2CCCCC2)cc(C(C)(C)C)c1` [Example 29, 2-Chloro-1-(cyclohexylmethyl)-5-(3,5-di-tert-butylphenyl)-1H-pyrrole-3-sulfonamide], the IC50 was under 500 nM.

On to `CC(C)(C)c1cc(-c2c(Cl)c(S(N)(=O)=O)c(Cl)n2CC2CCCCC2)cc(C(C)(C)C)c1` [Example 30, 2,4-Dichloro-1-(cyclohexylmethyl)-5-(3,5-di-tert-butylphenyl)-1H-pyrrole-3-sulfonamide], for which the IC50 is 500 to 2000 nM.

As to `CC(C)(C)c1cc(-c2cc(S(N)(=O)=O)c(Br)n2CC2CCCCC2)cc(C(C)(C)C)c1` [Example 31, 2-Bromo-1-(cyclohexylmethyl)-5-(3,5-di-tert-butylphenyl)-1H-pyrrole-3-sulfonamide], the IC50 is under 500 nM.

Turning to `CC(C)(C)c1cc(-c2c(Br)c(S(N)(=O)=O)c(Br)n2CC2CCCCC2)cc(C(C)(C)C)c1` [Example 32, 2,4-Dibromo-1-(cyclohexylmethyl)-5-(3,5-di-tert-butylphenyl)-1H-pyrrole-3-sulfonamide], the 50% inhibitory concentration (IC50) was in the range of 500 to 2000 nM.

Take `CC(C)(C)c1cc(-c2cc(S(N)(=O)=O)c(C#N)n2CC2CCCCC2)cc(C(C)(C)C)c1` [Example 33, 2-Cyano-1-(cyclohexylmethyl)-5-(3,5-di-tert-butylphenyl)-1H-pyrrole-3-sulfonamide]: the concentration for half-maximal inhibition (IC50) is under 500 nM.

As for `Cc1c(S(N)(=O)=O)cc(-c2cc(C(F)(F)F)c(=O)n(CC(C)(C)C)c2)n1CC1CCCCC1` [Example 34, 1-(Cyclohexylmethyl)-2-methyl-5-(1-neopentyl-6-oxo-5-(trifluoromethyl)-1,6-dihydropyridin-3-yl)-1H-pyrrole-3-sulfonamide], the IC50 was over 2000 nM. Same read-out and setting: the figure for `Cc1c(S(N)(=O)=O)cc(-c2cc(C(C)(C)O)c3c(c2)C2(CCO3)CC2)n1CC1CCCCC1` [Example 37, 1-(Cyclohexylmethyl)-5-(8-(2-hydroxypropan-2-yl)spiro[chroman-4,1′-cyclopropan]-6-yl)-2-methyl-1H-pyrrole-3-sulfonamide] is over 2000 nM; for `Cc1c(S(=O)(=O)NCCC(=O)O)cc(-c2cc(C(C)(C)C)cc(C(C)(C)C)c2)n1CC1CCCCC1` [Example 39, 3-(1-(Cyclohexylmethyl)-5-(3,5-di-tert-butylphenyl)-2-methyl-1H-pyrrole-3-sulfonamido)propanoic acid] it is 500 to 2000 nM; for `Cc1c(S(=O)(=O)NCCC(N)=O)cc(-c2cc(C(C)(C)C)cc(C(C)(C)C)c2)n1CC1CCCCC1` [Example 40, 3-(1-(cyclohexylmethyl)-5-(3,5-di-tert-butylphenyl)-2-methyl-1H-pyrrole-3-sulfonamido)propanamide] it is under 500 nM.

Regarding `Cc1c(S(=O)(=O)NCCC(N)=O)c(Cl)c(-c2cc(C(C)(C)C)cc(C(C)(C)C)c2)n1CC1CCCCC1` [Example 41, 3-(4-chloro-1-(cyclohexylmethyl)-5-(3,5-di-tert-butylphenyl)-2-methyl-1H-pyrrole-3-sulfonamido)propanamide], the IC50 was under 500 nM.

For the compound `Cc1c(S(=O)(=O)NCC(=O)O)cc(-c2cc(C(C)(C)C)cc(C(C)(C)C)c2)n1CC1CCCCC1` [Example 43, 2(1-(Cyclohexylmethyl)-5(3,5-di-tert-butylphenyl)-2-methyl-1H-pyrrole-3-sulfonamido)acetic acid], the IC50 was over 2000 nM. On the same count and under the same terms, the figure for `Cc1c(S(=O)(=O)N2CCOCC2)cc(-c2cc(C(C)(C)C)cc(C(C)(C)C)c2)n1CC1CCCCC1` [Example 44, 4-((1-(Cyclohexylmethyl)-5-(3,5-di-tert-butylphenyl)-2-methyl-1H-pyrrol-3-yl)sulfonyl)morpholine] is under 500 nM; for `Cc1c(S(N)(=O)=O)cc(-c2cc(C(C)(C)C)cc(C(C)(C)C#N)c2)n1CC1CCCCC1` [Example 45, 5-(3-(tert-Butyl)-5-(2-cyanopropan-2-yl)phenyl)-1-(cyclohexylmethyl)-2-methyl-1H-pyrrole-3-sulfonamide] it is 500 to 2000 nM.

For orientation: IC50 means the concentration that inhibits the measured activity by half.
